In PMC6669322, “Small Molecule Binding to Alzheimer Risk Factor CD33 Promotes Aβ Phagocytosis” (iScience, 2019):

What was measured:
CD33 Y127A = biological target: T1, CD33 Y127A (Homo sapiens, UniProt P20138, Y127A); test: SNAP-tag homogeneous time-resolved fluorescence binding assay, CD33 Y127A; details: Y127A variant, in words
T1 construct: human CD33 ORF (NM_001772.3), lacking its signal peptide; expressed in transfected cells; host or cells: HEK293T, transient, pT8-SNAP vector
Protocol: (§1) Figure 3 P22 Binding to CD33 Wild-Type and Mutants (A) An example of affinity analysis for 1–243 μM (3-fold dilutions) of P22 binding to immobilized CD33^C36S. Data obtained in duplicate using single-cycle analysis and fit to a steady-state binding model to determine the equilibrium binding constant. (B) An example of affinity analysis of P22 binding to immobilized CD33 wild-type (WT) as per example in (A). (C) Sensorgram data for 0.01–9 μM (3-fold dilutions) of CD33^C36S binding to immobilized P22. Data obtained in triplicate using single concentration cycles and fit to a 1:1 binding model for kinetic analysis. […]
(§2) We then used our structural data to design mutations of key residues interacting with P22 to assess which interactions were the most important for binding affinity. The residues were mutated into alanine, and the effect of these mutations on P22 binding affinity was assessed using a SNAP-tag homogeneous time-resolved fluorescence binding assay (see Transparent Methods and Figures 3E–3G). […]
(§3) HEK293T cells were cultured in DMEM (ThermoFisher Scientific # 11965092) containing 10% FBS (Hyclone # SH30070.03) and 1% Penicillin-Streptomycin (ThermoFisher Scientific # 15140122) and transfected using Fugene HD (Promega # E2312) in 10 cm plates. […] The cells were counted, centrifuged and resuspended in PBS at a concentration of 1,000 cells/μL and 10 μL were plated into each well. […]

CD33 R119A = CD33 R119A (Homo sapiens, UniProt P20138, R119A); test: SNAP-tag homogeneous time-resolved fluorescence binding assay, CD33 R119A; set-up: human CD33 ORF (NM_001772.3), lacking its signal peptide; expressed in transfected cells; host or cells: HEK293T, transient, pT8-SNAP vector; details: binding affinity, R119A vs WT
Chain of CD33 R119A (P20138 18-364 R119A): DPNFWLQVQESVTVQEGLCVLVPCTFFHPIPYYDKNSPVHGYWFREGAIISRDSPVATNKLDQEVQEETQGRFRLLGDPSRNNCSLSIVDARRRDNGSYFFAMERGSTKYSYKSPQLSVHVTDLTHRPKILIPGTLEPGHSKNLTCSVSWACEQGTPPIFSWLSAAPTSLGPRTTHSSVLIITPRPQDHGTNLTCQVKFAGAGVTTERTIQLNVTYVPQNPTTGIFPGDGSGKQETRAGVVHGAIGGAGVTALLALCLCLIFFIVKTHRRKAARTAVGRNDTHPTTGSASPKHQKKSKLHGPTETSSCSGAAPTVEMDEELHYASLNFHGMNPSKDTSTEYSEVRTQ
Protocol: as §1, §2, §3

T1 sequence (P20138 18-364 Y127A): as the sequence (P20138 18-364 R119A) above, with A102R, Y110A counted along it

For `Cc1cc(C(=O)NC[C@@H](O)[C@@H](O)[C@@H]2O[C@@](OC[C@H]3O[C@@H](O[C@H]4[C@H](O)[C@@H](O)[C@H](OCCN)O[C@@H]4CO)[C@H](O)[C@@H](O)[C@H]3O)(C(=O)O)C[C@H](O)[C@H]2NC(=O)Cn2cc(C3CCCCC3)nn2)cc(C)c1O` [P22, β-D-Glucopyranoside, 2-aminoethyl O-[N-[2-(4-cyclohexyl-1H-1,2,3-triazol-1-yl)acetyl]-9-deoxy-9-[(4-hydroxy-3,5-dimethylbenzoyl)amino]-α-neuraminosyl] (2→6)-O-β-D-galactopyranosyl-(1→4)-], the “specific binding (total binding – binding in presence of 100 μM non-labeled P22)” value (CD33 Y127A) was “completely abolished” and the “Fold-decrease compared to WT” value (CD33 R119A) was greater than 30 fold.
